Residues, ends and D or L forms follow the SMILES beside them.
What was measured:
[1] = Quenching of tryptophan/tyrosines by acrylamide (Stern-Volmer); type: physicochemical; conditions: peptide 1 µM; for Ksv (M^−1) in buffer: absence of liposomes, F0/F = 1+Ksv [Q]; for Ksv (M^−1) in LUVs: presence of liposomes, peptide/lipid molar ratio 1/200
From the text: The observed changes in the characteristics of the tryptophan/tyrosine emission upon binding of peptides HB168–186 and HB254–270 to lipid vesicles indicate their insertion into the hydrophobic region of the bilayers. We also studied the accessibility of the tryptophan/tyrosine residues of membrane-bound peptides towards acrylamide, a neutral, water-soluble, highly efficient quenching molecule, which is unable to penetrate into the hydrophobic core of the lipid bilayer. The more deeply a tryptophan/tyrosine residue is buried, the less strongly it can be quenched by acrylamide. Stern-Volmer plots for the quenching of tryptophan by acrylamide, recorded in the absence and presence of lipid vesicles, are depicted in Figure 6. Fluorescence of tryptophan/tyrosine decreased in a concentration-dependent manner by the addition of acrylamide to the peptide solution both in the absence and presence of liposomes, without other effects on the spectra. However, we can observe a substantial difference between the two peptides.
Aliquots of a 4 M solution of the water-soluble quencher were added to the solution containing the peptide (1 µM) in the absence or presence of liposomes at a peptide/lipid molar ratio of 1/200. The maximal concentration of acrylamide is 0.2 mmol/ml. Tryptophan fluorescence was measured with an excitation wavelength of 295 nm, to reduce acrylamide absorbance (and the resulting inner filter effect), and emission at a wavelength of 340 nm, to eliminate interference from the Raman band of water and tyrosine fluorescence was measured with an excitation wavelength of 274 nm, and emission at a wavelength of 305. The data were analyzed according to the Stern-Volmer equation [68], F0/F = 1+Ksv [Q], where F0 and F represent the fluorescence intensities in the absence and the presence of the quencher (Q), respectively, and Ksv is the Stern-Volmer quenching constant, which is a measure of the accessibility of tryptophan to acrylamide. […] Accordingly, Ksv is determined by the amount of non-vesicle-associated free peptide as well as the fraction of the peptide residing at the surface of the bilayer.

[2] = Thioflavin T assay for peptide aggregation; type: physicochemical; conditions: for Aggregation state in the presence of DOPC/Chol LUVs (ThT fluorescence) / Aggregation state in aqueous medium (ThT fluorescence): peptide 4 µM, 100 mM NaCl, 10 mM Tris–HCl, 25 µM ThT, pH 7.4, 37°C; for Aggregation state in the presence of DOPC/Chol LUVs (ThT fluorescence): 0.1 mM phospholipid; for Aggregation state in aqueous medium (ThT fluorescence): ex 450 nm / em 482 nm; for Oligomerization in aqueous solution / Oligomerization inside / interacting with the membrane: summary in discussion
Method: The peptide's aggregation state in buffer and DOPC/Chol LUVs was assayed using ThT [36], in order to know the possible effects of the peptide aggregation on the membranes. As observed in Figure 4 A–B, the two peptides present a completely different behaviour.
Peptide aggregation was assayed using Thioflavin T (ThT). ThT associates rapidly with aggregated peptides giving rise to a new excitation maximum at 450 nm and an enhanced emission at 482 nm. LUVs in 100 mM NaCl, 10 mM Tris–HCl, 25 µM ThT, pH 7.4 (final phospholipid concentration of 0.1 mM) were titrated with a peptide concentration of 1, 4, 8, 12, 16, 20 µM. Fluorescence was measured before and after the desired amount of peptide was added into the cuvette using a Varian Cary Eclipse fluorescence spectrometer at 37°C. Samples were excited at 450 nm (slit width, 5 nm) and fluorescence emission was recorded at 482 nm (slit width, 5 nm). Aggregation was quantified according to the equation, %A = (Ff−F0)/(Fmax−F0)×100, where Ff is the value of fluorescence after peptide addition, F0 the initial fluorescence in the absence of peptide and Fmax is the fluorescence maximum obtained immediately after peptide addition. Kinetic data were obtained at a concentration of 4 µM.

[3] = Lipid mixing assay (NBD-PE/Rho-PE resonance energy transfer); conditions: 0.1 mM lipid, 37°C
Method: To investigate the fusogenicity of gB peptides, NBD and Rho labelled PE were used as the donor and acceptor of fluorescence energy transfer. A population of LUVs labelled with both was mixed with a population of unlabelled LUVs and increasing amounts of peptides were added. […] The dependence of the extent of lipid mixing on the peptide to lipid molar ratio was analysed. The fusogenic capacity was monitored by measuring their ability to induce lipid mixing of model membranes composed of DOPG, DOPG/Chol (3/2), DOPC, DOPC/Chol (3/2), POPC/Chol (3/2), and POPC/Chol/SM at various ratios (4/1/1, 2/1/1, 1/1/1).
Figure 2 Ability of peptides to induce lipid mixing. Peptide-promoted membrane fusion as determined by lipid mixing; peptide aliquots were added to 0.1 mM LUVs, containing 0.6% NBD and 0.6% Rho. The increase in fluorescence was measured after the addition of peptide aliquots; reduced Triton-X-100 (0.05% v/v) was referred to as 100% of fusion. In figure is reported the dose dependence of lipid mixing at 37°C: panels A and B HB168–186 and HB254–270 in LUVs of different composition; panels C and D HB168–186 and HB254–270 in LUVs mimicking lipid rafts; panel E HB168–186, HB254–270 and shorter versions in DOPC/Chol LUVs; panel F equimolecular mixtures of peptides HB168–186 and HB254–270 in DOPC/Chol (3/2) and POPC/Chol/SM (2/1/1).
Membrane lipid mixing was monitored using the resonance energy transfer assay (RET) reported by Struck et al.. The assay is based on the dilution of the NBD-PE (donor) and Rho-PE (acceptor). Dilution due to membrane mixing results in an increase in NBD-PE fluorescence. The change in donor emission was monitored as aliquots of peptides were added to vesicles. […] The fluorescence scale was calibrated such that the zero level corresponded to the initial residual fluorescence of the labelled vesicles and the 100% value corresponding to complete mixing of all lipids in the system was set by the fluorescence intensity of vesicles upon the addition of Triton X-100 (0.05% v/v) at the same total lipid concentrations of the fusion assay. […]

[4] = target: the molecule itself; assay: thioflavin T fluorescence (peptide aggregation)

| Molecule | Ksv (M^−1) in buffer [1] [M⁻¹] | Ksv (M^−1) in LUVs [1] [M⁻¹] | Aggregation state in the presence of DOPC/Chol LUVs (ThT fluorescence) [2] | Aggregation state in aqueous medium (ThT fluorescence) [2] | Oligomerization in aqueous solution [2] | Oligomerization inside / interacting with the membrane [2] | Level of fusion (lipid mixing) in DOPC/Chol LUVs [3] | other results |
| --- | --- | --- | --- | --- | --- | --- | --- | --- |
| CC[C@H](C)[C@H](NC(=O)CNC(=O)[C@H](CCSC)NC(=O)[C@H](Cc1ccccc1)NC(=O)[C@H](CCC(N)=O)NC(=O)[C@H](CO)NC(=O)[C@H](Cc1ccc(O)cc1)NC(=O)[C@H](CCCNC(=N)N)NC(=O)[C@H](Cc1c[nH]cn1)NC(=O)CNC(=O)[C@H](Cc1ccccc1)NC(=O)[C@H](Cc1c[nH]c2ccccc12)NC(=O)[C@@H](NC(=O)[C@H](CCC(N)=O)NC(=O)[C@H](CO)NC(=O)[C@@H](NC(=O)[C@@H](NC(=O)[C@@H](N)C(C)C)[C@@H](C)O)C(C)C)C(C)C)C(=O)N[C@@H](Cc1ccccc1)C(=O)O [HB168–186] (H-VTVSQVWFGHRYSQFMGIF-OH) | 8.3 ± 0.2 | 6.4 ± 0.4 | lower aggregation | already aggregated | high tendency to oligomerize | high tendency to oligomerize | – | Aggregation as a function of peptide concentration (ThT fluorescence) ([2]; buffer and DOPC/Chol LUVs, high concentrations (titration 1, 4, 8, 12, 16, 20 µM), 37°C): aggregated both in the aqueous medium and in LUVs; Fusogenic ability (lipid mixing) ([3]; LUVs of DOPG, DOPG/Chol, DOPC, DOPC/Chol, POPC/Chol, Triton X-100 = 100%, at least three repeats averaged): higher fusogenic ability |
| CC(C)[C@H](N)C(=O)N[C@@H](Cc1c[nH]c2ccccc12)C(=O)N[C@@H](Cc1ccccc1)C(=O)NCC(=O)N[C@@H](Cc1c[nH]cn1)C(=O)N[C@@H](CCCNC(=N)N)C(=O)N[C@@H](Cc1ccc(O)cc1)C(=O)O [HB173–179] (H-VWFGHRY-OH) | – | – | – | – | – | – | lower levels of fusion compared to longer sequences | – |
| CC(C)[C@H](NC(=O)[C@H](CCCNC(=N)N)NC(=O)[C@H](CO)NC(=O)[C@@H]1CCCN1C(=O)[C@H](CC(N)=O)NC(=O)[C@@H](N)Cc1ccc(O)cc1)C(=O)N[C@@H](CCC(=O)O)C(=O)N[C@@H](C)C(=O)N[C@@H](Cc1ccccc1)C(=O)N[C@@H](Cc1c[nH]cn1)C(=O)N[C@@H](CCCNC(=N)N)C(=O)N[C@@H](Cc1ccc(O)cc1)C(=O)NCC(=O)N[C@H](C(=O)N[C@H](C(=O)N[C@H](C(=O)N[C@@H](CC(N)=O)C(=O)O)C(C)C)[C@@H](C)O)[C@@H](C)O [HB254–270] (H-YNPSRVEAFHRYGTTVN-OH) | 71.1 ± 1.1 | 8.5 ± 0.1 | not aggregated | not aggregated | not oligomerized | able to oligomerize | – | – |
| CC(C)[C@H](NC(=O)[C@@H](N)CCCNC(=N)N)C(=O)N[C@@H](CCC(=O)O)C(=O)N[C@@H](C)C(=O)N[C@@H](Cc1ccccc1)C(=O)N[C@@H](Cc1c[nH]cn1)C(=O)N[C@@H](CCCNC(=N)N)C(=O)N[C@@H](Cc1ccc(O)cc1)C(=O)O [HB258–265] (H-RVEAFHRY-OH) | – | – | – | – | – | – | lower levels of fusion compared to longer sequences | – |
| VTVSQVWFGHRYSQFMGIF (source: synthetic peptide (solid-phase Fmoc method), purified (purity higher than 98%)) [HB168–186] | – | – | – | – | – | – | – | binding result [4]: binds |
